{"source": "ChEMBL document CHEMBL4196033", "about": "“Potent hydrazone derivatives targeting esophageal cancer cells” (Eur J Med Chem, 2018)", "key": {"ECa-109 cell line [1]": {"system": "ECa-109 cell line", "test": "Induction of apoptosis in human EC109 cells assessed as early apoptotic cells at 4 uM after 48 hrs in presence of caspase inhibitor Z-VAD-FMK by Annexin V-FITC/propidium iodide staining based flow cytometry (reference value: 0.52%)", "type": "functional"}, "ECa-109 cell line [2]": {"system": "ECa-109 cell line", "test": "Induction of apoptosis in human EC109 cells assessed as increase in cleaved PARP protein expression after 48 hrs by Western blot analysis", "type": "functional, cell-based"}, "EC9706 [3]": {"system": "EC9706", "test": "Antiproliferative activity against human EC9706 cells after 48 hrs by MTT assay", "type": "functional, cell-based", "settings": "EC9706, 48 h"}, "EC9706 [4]": {"system": "EC9706", "test": "Induction of apoptosis in human EC9706 cells assessed as late apoptotic cells at 2 uM after 48 hrs by Annexin V-FITC/propidium iodide staining based flow cytometry (reference value: 1.29 to 1.99%)", "type": "functional"}, "ECa-109 cell line [5]": {"system": "ECa-109 cell line", "test": "Induction of apoptosis in human EC109 cells assessed as decrease in Bid protein expression at 2 to 8 uM after 48 hrs by Western blot analysis", "type": "functional, cell-based"}, "EC9706 [6]": {"system": "EC9706", "test": "Induction of apoptosis in human EC9706 cells assessed as increase in Bax protein expression after 48 hrs by Western blot analysis", "type": "functional, cell-based"}, "Mus musculus": {"system": "Mus musculus", "test": "Acute toxicity in C57BL/6 mouse assessed as histopathological changes in spleen at 2 g/kg, ig measured for 2 weeks by hematoxylin and eosin staining based microscopic method", "type": "organism-based", "settings": "in vivo, po, 2000 mg/kg, 336 h"}, "GES1": {"system": "GES1", "test": "Antiproliferative activity against human GES-1 cells after 24 hrs by MTT assay", "type": "cell-based", "settings": "GES1, 24 h"}, "ECa-109 cell line [7]": {"system": "ECa-109 cell line", "test": "Induction of apoptosis in human EC109 cells at 2 to 4 uM after 48 hrs in presence of anti-oxidant NAC by Annexin V-FITC/propidium iodide staining based flow cytometry", "type": "functional, cell-based"}, "EC9706 [8]": {"system": "EC9706", "test": "Effect on Prxs-4 protein expression in human EC9706 cells at 2 to 8 uM after 48 hrs by Western blot analysis", "type": "functional, cell-based"}, "ECa-109 cell line [9]": {"system": "ECa-109 cell line", "test": "Induction of apoptosis in human EC109 cells assessed as increase in tBid protein expression at 2 to 8 uM after 48 hrs by Western blot analysis", "type": "functional, cell-based"}, "ECa-109 cell line [10]": {"system": "ECa-109 cell line", "test": "Effect on Prxs-1 protein expression in human EC109 cells at 2 to 8 uM after 48 hrs by Western blot analysis", "type": "functional, cell-based"}, "ECa-109 cell line [11]": {"system": "ECa-109 cell line", "test": "Induction of morphological changes in human EC109 cells assessed as cell rounding after 48 hrs by Hoechst 33342 staining based fluorescence microscopic method", "type": "functional"}, "ECa-109 cell line [12]": {"system": "ECa-109 cell line", "test": "Effect on Prxs-3 protein expression in human EC109 cells at 2 to 8 uM after 48 hrs by Western blot analysis", "type": "functional, cell-based"}, "ECa-109 cell line [13]": {"system": "ECa-109 cell line", "test": "Induction of ROS generation in human EC109 cells at 8 uM after 24 hrs by DCFH-DA staining based flow cytometry relative to control", "type": "functional"}, "ECa-109 cell line [14]": {"system": "ECa-109 cell line", "test": "Induction of apoptosis in human EC109 cells assessed as late apoptotic cells at 2 uM after 48 hrs by Annexin V-FITC/propidium iodide staining based flow cytometry (reference value: 0.2 to 1.74%)", "type": "functional"}, "MCF7": {"system": "MCF7", "test": "Antiproliferative activity against human MCF7 cells after 72 hrs by MTT assay", "type": "functional, cell-based", "settings": "MCF7, 72 h"}, "ECa-109 cell line [15]": {"system": "ECa-109 cell line", "test": "Induction of apoptosis in human EC109 cells assessed as live cells at 2 uM after 48 hrs by Annexin V-FITC/propidium iodide staining based flow cytometry (reference value: 95.2 to 99%)", "type": "functional"}, "ECa-109 cell line [16]": {"system": "ECa-109 cell line", "test": "Induction of apoptosis in human EC109 cells assessed as necrotic cells at 4 uM after 48 hrs in presence of caspase inhibitor Z-VAD-FMK by Annexin V-FITC/propidium iodide staining based flow cytometry (reference value: 2.37%)", "type": "functional"}, "EC9706 [17]": {"system": "EC9706", "test": "Effect on Prxs-2 protein expression in human EC9706 cells at 2 to 8 uM after 48 hrs by Western blot analysis", "type": "functional, cell-based"}, "EC9706 [18]": {"system": "EC9706", "test": "Induction of morphological changes in human EC9706 cells assessed as apoptotic body formation after 48 hrs by Hoechst 33342 staining based fluorescence microscopic method", "type": "functional, cell-based"}, "EC9706 [19]": {"system": "EC9706", "test": "Upregulation of p27 protein expression in human EC9706 cells at 4 uM after 24 to 48 hrs by Western blot analysis relative to control", "type": "functional"}, "ECa-109 cell line [20]": {"system": "ECa-109 cell line", "test": "Induction of apoptosis in human EC109 cells assessed as necrotic cells at 8 uM after 48 hrs by Annexin V-FITC/propidium iodide staining based flow cytometry (reference value: 0.74 to 1.18%)", "type": "functional"}, "EC9706 [21]": {"system": "EC9706", "test": "Effect on Prxs-1 protein expression in human EC9706 cells at 2 to 8 uM after 48 hrs by Western blot analysis", "type": "functional, cell-based"}, "EC9706 [22]": {"system": "EC9706", "test": "Cell cycle arrest in human EC9706 cells assessed as increase in G0/G1 phase population at 8 uM after 24 hrs by propidium iodide staining based flow cytometry relative to control", "type": "functional"}, "EC9706 [23]": {"system": "EC9706", "test": "Upregulation of p27 protein expression in human EC9706 cells at 8 uM after 24 to 48 hrs by Western blot analysis relative to control", "type": "functional"}, "ECa-109 cell line [24]": {"system": "ECa-109 cell line", "test": "Upregulation of p27 protein expression in human EC109 cells at 8 uM after 24 to 48 hrs by Western blot analysis relative to control", "type": "functional"}, "ECa-109 cell line [25]": {"system": "ECa-109 cell line", "test": "Anticlonogenic activity against human EC109 cells after 7 days by crystal violet staining based assay", "type": "functional, cell-based"}, "EC9706 [26]": {"system": "EC9706", "test": "Upregulation of p27 protein expression in human EC9706 cells at 2 uM after 24 to 48 hrs by Western blot analysis relative to control", "type": "functional"}, "EC9706 [27]": {"system": "EC9706", "test": "Induction of apoptosis in human EC9706 cells assessed as late apoptotic cells at 4 uM after 48 hrs in presence of caspase inhibitor Z-VAD-FMK by Annexin V-FITC/propidium iodide staining based flow cytometry (reference value: 1.27%)", "type": "functional"}, "EC9706 [28]": {"system": "EC9706", "test": "Induction of morphological changes in human EC9706 cells assessed as cell rounding after 48 hrs by Hoechst 33342 staining based fluorescence microscopic method", "type": "functional"}, "ECa-109 cell line [29]": {"system": "ECa-109 cell line", "test": "Induction of apoptosis in human EC109 cells assessed as early apoptotic cells at 8 uM after 48 hrs by Annexin V-FITC/propidium iodide staining based flow cytometry (reference value: 0.43 to 1.15%)", "type": "functional"}, "EC9706 [30]": {"system": "EC9706", "test": "Induction of apoptosis in human EC9706 cells assessed as necrotic cells at 8 uM after 48 hrs in presence of caspase inhibitor Z-VAD-FMK by Annexin V-FITC/propidium iodide staining based flow cytometry (reference value: 1.2%)", "type": "functional"}, "ECa-109 cell line [31]": {"system": "ECa-109 cell line", "test": "Induction of apoptosis in human EC109 cells after 48 hrs by Annexin V-FITC/propidium iodide staining based flow cytometry", "type": "functional, cell-based"}, "ECa-109 cell line [32]": {"system": "ECa-109 cell line", "test": "Induction of ROS generation in human EC109 cells at 2 uM after 24 hrs by DCFH-DA staining based flow cytometry relative to control", "type": "functional"}, "EC9706 [33]": {"system": "EC9706", "test": "Induction of apoptosis in human EC9706 cells assessed as live cells at 8 uM after 48 hrs in presence of caspase inhibitor Z-VAD-FMK by Annexin V-FITC/propidium iodide staining based flow cytometry (reference value: 95.7%)", "type": "functional"}, "EC9706 [34]": {"system": "EC9706", "test": "Induction of apoptosis in human EC9706 cells assessed as early apoptotic cells at 2 uM after 48 hrs by Annexin V-FITC/propidium iodide staining based flow cytometry (reference value: 0.68 to 1.58%)", "type": "functional"}, "EC9706 [35]": {"system": "EC9706", "test": "Induction of apoptosis in human EC9706 cells assessed as early apoptotic cells at 8 uM after 48 hrs by Annexin V-FITC/propidium iodide staining based flow cytometry (reference value: 0.68 to 1.58%)", "type": "functional"}}, "note": "Calls of active or inactive are those of the source. No cut-off for these calls is given here."}
{"smiles": "COc1ccc(/C=N/NC(=O)c2cccc(S(=O)(=O)N3CCOCC3)c2)c(O)c1", "values": [{"measurement": "Activity", "setting": "ECa-109 cell line [1]", "result": 9.34, "unit": "%"}, {"measurement": "Activity", "setting": "ECa-109 cell line [2]", "result": "Dose-dependent effect"}, {"measurement": "IC50", "setting": "EC9706 [3]", "result": 7.51, "unit": "µM"}, {"measurement": "Activity", "setting": "EC9706 [4]", "result": 6.25, "unit": "%"}, {"measurement": "Activity", "setting": "ECa-109 cell line [5]", "result": "Active"}, {"measurement": "Activity", "setting": "EC9706 [6]", "result": "Dose-dependent effect"}, {"measurement": "Activity", "setting": "Mus musculus", "result": "Non-Toxic"}, {"measurement": "IC50", "setting": "GES1", "result": "> 80", "unit": "µM"}, {"measurement": "Activity", "setting": "ECa-109 cell line [7]", "result": "inactive"}, {"measurement": "Activity", "setting": "EC9706 [8]", "result": "Active"}, {"measurement": "Activity", "setting": "ECa-109 cell line [9]", "result": "Active"}, {"measurement": "Activity", "setting": "ECa-109 cell line [10]", "result": "Active"}, {"measurement": "Activity", "setting": "ECa-109 cell line [11]", "result": "Dose-dependent effect"}, {"measurement": "Activity", "setting": "ECa-109 cell line [12]", "result": "Active"}, {"measurement": "fold change (FC)", "setting": "ECa-109 cell line [13]", "result": 2.21}, {"measurement": "Activity", "setting": "ECa-109 cell line [14]", "result": 6.84, "unit": "%"}, {"measurement": "IC50", "setting": "MCF7", "result": 5.14, "unit": "µM"}, {"measurement": "Activity", "setting": "ECa-109 cell line [15]", "result": 79.1, "unit": "%"}, {"measurement": "Activity", "setting": "ECa-109 cell line [16]", "result": 20.4, "unit": "%"}, {"measurement": "Activity", "setting": "EC9706 [17]", "result": "Active"}, {"measurement": "Activity", "setting": "EC9706 [18]", "result": "Dose-dependent effect"}, {"measurement": "fold change (FC)", "setting": "EC9706 [19]", "result": 1.4}, {"measurement": "Activity", "setting": "ECa-109 cell line [20]", "result": "2.23 - 13%"}, {"measurement": "Activity", "setting": "EC9706 [21]", "result": "Active"}, {"measurement": "fold change (FC)", "setting": "EC9706 [22]", "result": 1.27}, {"measurement": "fold change (FC)", "setting": "EC9706 [23]", "result": 1.7}, {"measurement": "fold change (FC)", "setting": "ECa-109 cell line [24]", "result": 1.9}, {"measurement": "Activity", "setting": "ECa-109 cell line [25]", "result": "Active"}, {"measurement": "fold change (FC)", "setting": "EC9706 [26]", "result": 1.3}, {"measurement": "Activity", "setting": "EC9706 [27]", "result": 20.7, "unit": "%"}, {"measurement": "Activity", "setting": "EC9706 [28]", "result": "Dose-dependent effect"}, {"measurement": "Activity", "setting": "ECa-109 cell line [29]", "result": "18.7 - 25%"}, {"measurement": "Activity", "setting": "EC9706 [30]", "result": 17, "unit": "%"}, {"measurement": "Activity", "setting": "ECa-109 cell line [31]", "result": "Dose-dependent effect"}, {"measurement": "fold change (FC)", "setting": "ECa-109 cell line [32]", "result": 1.81}, {"measurement": "Activity", "setting": "EC9706 [33]", "result": 31, "unit": "%"}, {"measurement": "Activity", "setting": "EC9706 [34]", "result": 1.56, "unit": "%"}, {"measurement": "Activity", "setting": "EC9706 [35]", "result": "8.64 - 26%"}]}
